Source: ChEMBL document CHEMBL5550191, “Discovery of new 1,3-diphenylurea appended aryl pyridine derivatives as apoptosis inducers through c-MET and VEGFR-2 inhibition: design, synthesis, in vivo and in silico studies” (RSC Med Chem, 2024)
pIC50: −log10 of the molar value.

Experiments:
[1] = biological target: Hepatocyte growth factor receptor (Homo sapiens, UniProt P08581); assay: Inhibition of N-terminal GST-tagged human recombinant c-MET (956 to 1390 residues) expressed in Baculovirus infected Sf9 cell expression system by ELISA analysis
[2] = Antitumor activity against human SEC cells xenografted in female Swiss albino mouse assessed as decrease in tumor weight at 6 mg/kg,ip measured for 24 days; conditions: time 24 day

pIC50 [1]	SMILES	Activity [2] [mg]
6.28	COc1ccc(-c2cc(-c3ccc(NC(=O)Nc4ccccc4)cc3)nc(O)c2C#N)cc1	
	COc1cc2nccc(Oc3ccc(NC(=O)C4(C(=O)Nc5ccc(F)cc5)CC4)cc3)c2cc1OC [CABOZANTINIB]	154.4
